Experimental data as given in patent US20130217722A1, “NOVEL COMPOUND USEFUL FOR THE TREATMENT OF DEGENERATIVE AND INFLAMMATORY DISEASES” (priority 2012, published 2013).
Where “and” joins values, the source holds several entries; their conditions need not be identical. Equal entries are not always repeated.

What was measured:
JAK2 = target: T1, JAK2 (Homo sapiens, UniProt O60674); assay: JAK2 Ulight-JAK1 peptide assay; assay type: biochemical
T1 construct: Recombinant human JAK2 catalytic domain (amino acids 808-1132; catalog number PV4210) was purchased from Invitrogen; purchased Invitrogen PV4210
T1 sequence (O60674 808-1132): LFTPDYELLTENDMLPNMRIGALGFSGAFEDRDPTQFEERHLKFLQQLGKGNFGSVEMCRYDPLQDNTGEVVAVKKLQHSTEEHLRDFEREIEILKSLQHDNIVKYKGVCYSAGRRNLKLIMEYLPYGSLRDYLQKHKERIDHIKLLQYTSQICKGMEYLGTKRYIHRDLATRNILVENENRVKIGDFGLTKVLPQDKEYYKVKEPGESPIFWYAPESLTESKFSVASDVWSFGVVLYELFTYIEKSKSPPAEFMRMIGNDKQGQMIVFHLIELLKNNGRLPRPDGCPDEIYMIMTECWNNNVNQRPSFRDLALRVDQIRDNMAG
Procedure: Recombinant human JAK2 (catalytic domain, amino acids […]; catalog number PV4210) was purchased from Invitrogen. 0.0125 mU of JAK2 was incubated with 25 nM Ulight-JAK1(tyr1023) peptide (Perkin Elmer catalog number TRF0121) in kinase reaction buffer (25 mM HEPES pH7.0, 0.01% Triton X-100, 7.5 mM MgCl2, 2 mM DTT, 7.5 μM ATP) with or without 4 μL containing test compound or vehicle (DMSO, 1% final concentration), in a total volume of 20 μL, in a white 384 Opti plate (Perkin Elmer, catalog number 6007290). After 60 min at rt, reactions were stopped by adding 20 μL/well of detection mixture (1× detection buffer (Perkin Elmer, catalog number CR97-100C), 0.5 nM Europium-anti-phosphotyrosine (PT66) (Perkin Elmer, catalog number AD0068), 10 mM EDTA). Readout is performed using the Envision with excitation at 320 nm and measuring emission at 615 nm (Perkin Elmer). Kinase activity was calculated by subtracting relative fluorescence units (RFU) obtained in the presence of a positive control inhibitor (10 μM staurosporine) from RFU obtained in the presence of vehicle. The ability of a test compound to inhibit this activity was determined as:
Percentage inhibition=((RFU determined for sample with test compound present−RFU determined for sample with positive control inhibitor) divided by (RFU determined in the presence of vehicle−RFU determined for sample with positive control inhibitor))*100. […]

[1] = target: T2, Recombinant human TYK2 catalytic domain (Homo sapiens, UniProt P29597); assay: TYK2 inhibition assay (polyGT substrate); assay type: biochemical
T2 construct: Recombinant human TYK2 catalytic domain (amino acids 871-1187; catalog number 08-147) was purchased from Carna biosciences; purchased Carna Biosciences 08-147
T2 sequence (P29597 871-1187): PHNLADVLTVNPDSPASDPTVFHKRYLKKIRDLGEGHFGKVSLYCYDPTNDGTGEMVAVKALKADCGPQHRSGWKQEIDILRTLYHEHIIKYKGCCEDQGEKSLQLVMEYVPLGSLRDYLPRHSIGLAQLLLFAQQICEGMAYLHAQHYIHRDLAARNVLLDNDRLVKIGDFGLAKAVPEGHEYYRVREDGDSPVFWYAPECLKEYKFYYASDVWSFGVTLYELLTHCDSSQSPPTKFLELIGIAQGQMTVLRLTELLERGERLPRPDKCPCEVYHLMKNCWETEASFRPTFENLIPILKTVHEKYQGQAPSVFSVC
Procedure: Recombinant human TYK2 catalytic domain (amino acids 871-1187; catalog number 08-147) was purchased from Carna biosciences. 5 ng of TYK2 was incubated with 12.5 μg polyGT substrate (Sigma catalog number P0275) in kinase reaction buffer (25 mM Hepes pH 7.2, 50 mM NaCl, 0.5 mM EDTA, 1 mM DTT, 5 mM MnCl2, 10 mM MgCl2, 0.1% Brij-35, 0.1 μM non-radioactive ATP, 0.125 μCi ^33P-gamma-ATP (GE Healthcare, catalog number AH9968) final concentrations) with or without 5 μL containing test compound or vehicle (DMSO, 1% final concentration), in a total volume of 25 μL, in a polypropylene 96-well plate (Greiner, V-bottom). After 90 min at 30° C., reactions were stopped by adding 25 μL/well of 150 mM phosphoric acid. […] 40 ^μL/well of Microscint-20 was added, the top of the plates was sealed and readout was performed using the Topcount (Perkin Elmer). Kinase activity was calculated by subtracting counts per min (cpm) obtained in the presence of a positive control inhibitor (10 μM staurosporine) from cpm obtained in the presence of vehicle. The ability of a test compound to inhibit this activity was determined as:
Percentage inhibition=((cpm determined for sample with test compound present−cpm determined for sample with positive control inhibitor) divided by (cpm determined in the presence of vehicle−cpm determined for sample with positive control inhibitor))*100. […]

CCc1cc(C2=CCN(C(=O)CC#N)CC2)ccc1N(C)c1cc2c(cn1)ncn2C [Compound 1]
JAK1 selectivity vs JAK2 (JAK2): 28 fold
IC50 (JAK2; Ulight-JAK1(tyr1023) peptide, 7.5 μM ATP, individual determinations, read-out: IC50 against JAK2): 61.5 nM and 108 nM and 101 nM and 42.9 nM and 26.4 nM and 155 nM and 35.7 nM and 30.5 nM
JAK1 selectivity vs TYK2 [1]: 9 fold
